In ChEMBL document CHEMBL3045245, “Synthesis and antitumor activities of certain novel 2-amino-9-(4-halostyryl)-4H-pyrano[3,2-h]quinoline derivatives” (Med Chem Res, 2012):
In brackets after ≈: the same amount, converted by molar mass.

Assays:
HepG2 [1] = test: Cytotoxicity against Homo sapiens (human) HepG2 cells after 48 hr by MTT assay; assay type: functional, cell-based; details: HepG2, 48 h
HepG2 [2] = test: Cytotoxicity against Homo sapiens (human) HepG2 cells assessed as cell viability at 1.56 ug/ml after 48 hr by MTT assay; assay type: functional; details: HepG2, 48 h, read-out: Activity
HepG2 [3] = test: Cytotoxicity against Homo sapiens (human) HepG2 cells assessed as cell viability at 6.25 ug/ml after 48 hr by MTT assay; assay type: functional; details: HepG2, 48 h, read-out: Activity
HepG2 [4] = test: Cytotoxicity against Homo sapiens (human) HepG2 cells assessed as cell viability at 3.125 ug/ml after 48 hr by MTT assay; assay type: functional; details: HepG2, 48 h, read-out: Activity
HepG2 [5] = test: Cytotoxicity against Homo sapiens (human) HepG2 cells assessed as cell viability at 25 ug/ml after 48 hr by MTT assay; assay type: functional; details: HepG2, 48 h, read-out: Activity
HepG2 [6] = test: Cytotoxicity against Homo sapiens (human) HepG2 cells assessed as cell viability at 12.5 ug/ml after 48 hr by MTT assay; assay type: functional; details: HepG2, 48 h, read-out: Activity
[7] = Cytotoxicity against Homo sapiens (human) HCT cells after 48 hr by MTT assay; assay type: functional, cell-based
HepG2 [8] = test: Cytotoxicity against Homo sapiens (human) HepG2 cells assessed as cell viability at 50 ug/ml after 48 hr by MTT assay; assay type: functional; details: HepG2, 48 h, read-out: Activity
[9] = Cytotoxicity against Homo sapiens (human) HCT cells assessed as cell viability at 1.56 ug/ml after 48 hr by MTT assay; assay type: functional; details: read-out: Activity
[10] = Cytotoxicity against Homo sapiens (human) HCT cells assessed as cell viability at 3.125 ug/ml after 48 hr by MTT assay; assay type: functional; details: read-out: Activity
[11] = Cytotoxicity against Homo sapiens (human) HCT cells assessed as cell viability at 6.25 ug/ml after 48 hr by MTT assay; assay type: functional; details: read-out: Activity
[12] = Cytotoxicity against Homo sapiens (human) HCT cells assessed as cell viability at 12.5 ug/ml after 48 hr by MTT assay; assay type: functional; details: read-out: Activity
[13] = Cytotoxicity against Homo sapiens (human) HCT cells assessed as cell viability at 25 ug/ml after 48 hr by MTT assay; assay type: functional; details: read-out: Activity
[14] = Cytotoxicity against Homo sapiens (human) HCT cells assessed as cell viability at 50 ug/ml after 48 hr by MTT assay; assay type: functional; details: read-out: Activity
MCF7 [15] = test: Cytotoxicity against Homo sapiens (human) MCF7 cells after 48 hr by MTT assay; assay type: functional, cell-based; details: MCF7, 48 h
MCF7 [16] = test: Cytotoxicity against Homo sapiens (human) MCF7 cells assessed as cell viability at 1.56 ug/ml after 48 hr by MTT assay; assay type: functional; details: MCF7, 48 h, read-out: Activity
MCF7 [17] = test: Cytotoxicity against Homo sapiens (human) MCF7 cells assessed as cell viability at 3.125 ug/ml after 48 hr by MTT assay; assay type: functional; details: MCF7, 48 h, read-out: Activity
MCF7 [18] = test: Cytotoxicity against Homo sapiens (human) MCF7 cells assessed as cell viability at 6.25 ug/ml after 48 hr by MTT assay; assay type: functional; details: MCF7, 48 h, read-out: Activity
MCF7 [19] = test: Cytotoxicity against Homo sapiens (human) MCF7 cells assessed as cell viability at 12.5 ug/ml after 48 hr by MTT assay; assay type: functional; details: MCF7, 48 h, read-out: Activity
MCF7 [20] = test: Cytotoxicity against Homo sapiens (human) MCF7 cells assessed as cell viability at 25 ug/ml after 48 hr by MTT assay; assay type: functional; details: MCF7, 48 h, read-out: Activity
MCF7 [21] = test: Cytotoxicity against Homo sapiens (human) MCF7 cells assessed as cell viability at 50 ug/ml after 48 hr by MTT assay; assay type: functional; details: MCF7, 48 h, read-out: Activity

Structure (SMILES)	IC50 (HepG2 [1]) [µg/mL]	viability at 1.56 µg/mL (HepG2 [2]) [%]	viability at 6.25 µg/mL (HepG2 [3]) [%]	viability at 3.125 µg/mL (HepG2 [4]) [%]	viability at 25 µg/mL (HepG2 [5]) [%]	viability at 12.5 µg/mL (HepG2 [6]) [%]	IC50 [7] [µg/mL]	viability at 50 µg/mL (HepG2 [8]) [%]	viability at 1.56 µg/mL [9] [%]	viability at 3.125 µg/mL [10] [%]	viability at 6.25 µg/mL [11] [%]	viability at 12.5 µg/mL [12] [%]	viability at 25 µg/mL [13] [%]	viability at 50 µg/mL [14] [%]	IC50 (MCF7 [15]) [µg/mL]	viability at 1.56 µg/mL (MCF7 [16]) [%]	viability at 3.125 µg/mL (MCF7 [17]) [%]	viability at 6.25 µg/mL (MCF7 [18]) [%]	viability at 12.5 µg/mL (MCF7 [19]) [%]	viability at 25 µg/mL (MCF7 [20]) [%]	also measured
N#CC1=C(N)Oc2c(ccc3ccc(/C=C/c4ccc(Cl)cc4)nc23)C1c1ccc(Br)cc1 (stereo not given)	23.2 (≈ 45.1 µM)	94.6	77.2	87.9	44.9	69.6	11.9 (≈ 23.1 µM)	33.8	80.4	72.5	69.8	47.8	34.2	27.4	12.5 (≈ 24.3 µM)	98.5	83.1	61.8	50.3	39.9	viability at 50 µg/mL (MCF7 [21]): 32.4%
CCOC(=O)C1=C(N)Oc2c(ccc3ccc(/C=C/c4ccc(Cl)cc4)nc23)C1c1ccc(Cl)cc1 (stereo not given)	7.9 (≈ 15.3 µM)	81.9	53	65.3	37.9	45.6	13 (≈ 25.1 µM)	28.1	78.6	69.3	64.1	54.3	20.4	14.1	5.5 (≈ 10.6 µM)	78.1	67.8	47.2	41.6	34.6	viability at 50 µg/mL (MCF7 [21]): 27.2%
N#CC1=C(N)Oc2c(ccc3ccc(/C=C/c4ccc(Cl)cc4)nc23)C1c1ccc(Cl)cc1 (stereo not given)	48.2 (≈ 102 µM)	95.4	79.2	85.8	68.2	74	4.8 (≈ 10.2 µM)	48.4	69.1	59	42.6	33.8	29	24.7	5.6 (≈ 11.9 µM)	86.6	61.9	45.4	39.7	33.8	viability at 50 µg/mL (MCF7 [21]): 29.6%
CCOC(=O)C1=C(N)Oc2c(ccc3ccc(/C=C/c4ccc(F)cc4)nc23)C1c1ccc(Cl)cc1 (stereo not given)	47.5 (≈ 94.8 µM)	98.9	85.1	96.4	69	79.4	26.2 (≈ 52.3 µM)	45.2	98.9	80.6	73.1	69.5	51.3	19.8	37.9 (≈ 75.7 µM)	98.5	92.1	84.7	73.5	61.2	viability at 50 µg/mL (MCF7 [21]): 34.6%
N#CC1=C(N)Oc2c(ccc3ccc(/C=C/c4ccc(Br)cc4)nc23)C1c1ccc(Cl)cc1 (stereo not given)	7.5 (≈ 14.6 µM)	77.9	53.1	64.4	29	39.4	10.2 (≈ 19.8 µM)	25.2	98	89.8	74.9	41.9	30.3	22.8	15.9 (≈ 30.9 µM)	80.6	73	64.7	53.1	41.2	viability at 50 µg/mL (MCF7 [21]): 29.4%
